In patent US20180263979A1, “COMBINATION OF RAF INHIBITORS AND AURORA KINASE INHIBITORS” (MILLENNIUM PHARMACEUTICALS, INC., priority 2014, published 2018):
Where two headings read alike, the source gives them in different places.

Experiments:
[1] = tested on: SK-MEL-2 human melanoma xenograft (NRAS mutant); format: in vivo; conditions: for Non-Specific Deaths / Regression (100%) / Tumor Free on Day 74: n=8; for Delta AUC: vs vehicle
Protocol: Eight week old female athymic NCr-nu/nu mice were inoculated SC with 30-40 mg tumor fragments, propagated in an in vivo passage, in the area of the right flank. Tumor growth was monitored with vernier calipers and the tumor volume was calculated using the formula (0.5×[length×width^2]). When the mean tumor volume (MTV) reached approximately 167 mm^3 (range of 100-245 mm^3) animals were randomized into 12 treatment groups (n=8/group). The animals were dosed beginning 12 days after tumor inoculation with either vehicles or test compounds. The first day of treatment was designated as Day 0.
The 10 mg/mL solution was diluted with 100% PEG 400 for the lower dose.
Sodium alisertib was formulated in a half volume of 20% HPBCD in WFI and then diluted to a final volume (10% HPBCD/1% NaHCO3 in WFI) with 2% sodium bicarbonate in WFI.
The 2 vehicles, 100% PEG 400 (Vehicle 1) and 10% HPBCD/1% NaHCO3 in WFI (Vehicle 2) were administered (0.05 mL/10 g BW) concomitantly to mice in the vehicle group.
Tumor size and body weight were measured BIW beginning on the first day of treatment. Animals were terminated when their tumor reached approximately 2000 mm3, and the study was terminated on Day 62 post treatment initiation.
Inhibition of tumor growth was determined by calculating the percent TGI (MTV of the vehicle group−MTV of a treated group)/MTV of the vehicle group on Day 20 post treatment initiation. Statistical comparisons of tumor growth between treatment groups and vehicle were conducted using a linear mixed effects regression analysis on the ΔAUC.
Additional endpoints used to evaluate efficacy were: nonspecific deaths, complete tumor response, and the number of tumor-free survivors (TFS), defined as no measurable tumor observed on the last day of data collection prior to study termination (Day 62 post treatment initiation). A complete response (CR) was defined as a decrease in tumor mass to an undetectable size (<32 mm3).
The differences in the tumor growth trends over time between the vehicle control and treatment groups were assessed using linear mixed effects regression models. These models take into account that each animal was measured at multiple time points. A model was fit for the comparison, and the areas under the tumor volume-versus-time curve (AUCs) for control and treatment groups were calculated using the values predicted from the model.
These values were compared across treatment groups to assess whether the differences in trends over time were statistically significant. To compare pairs of treatment groups, the following mixed-effects linear regression model was fit to the data using the maximum likelihood method:
Where Yijk is the log 10 tumor value at the jth time point of the kth animal in the ith treatment, Yi0k is the day 0 (baseline) log 10 tumor value in the kth animal in the ith treatment, dayj was the median-centered time point and (along with day2j) was treated as a continuous variable, and eijk is the residual error. A spatial power law covariance matrix was used to account for the repeated measurements on the same animal over time. Interaction terms as well as day2j terms were removed if there were not statistically significant.
The −2 log likelihood of the full model was compared to one without any treatment terms (reduced model) and the difference in the values was tested using a Chi-squared test. The degrees of freedom of the test were calculated as the difference between the degrees of freedom of the full model and that of the reduced model.
The predicted differences in the log tumor values (Yijk-Yi0k, which can be interpreted as log 10 (fold change from day 0)) were taken from the above models to calculate mean AUC values for each treatment group. A dAUC value was then calculated as: […]
For synergy analysis, the observed differences in the log tumor values were used to calculate AUC values for each animal. […]

[2] = tested on: A375 melanoma xenograft (B-Raf mutant); experiment: In vivo tumor efficacy, B-Raf mutated A375 human melanoma xenograft model; design: species or system Mouse (Mus musculus) Athymic Balb/c Nude; conditions: for Mean Maximum % BWL: Day 0 to Day 21; for TGI: Day 21 post treatment initiation
Protocol: Each animal was inoculated with 3×10^6 A375 tumor cells (in 0.1 mL, 1:1 with Matrigel) into the right flank for tumor model development. Body weight and the tumor growth were monitored twice weekly. Tumor size was measured to the nearest 0.1 mm using vernier calipers and applying the formula V=W2×L/2, where V=volume, W=width, and L=length for the tumor xenograft. Xenografts were allowed to grow until they reached an average size of approximately 195 min3, 11 days after inoculation.
Sodium alisertib was formulated in 10% HPβCD plus 1% NaHCO3 in water for injection (WFI) (Vehicle 2). Alisertib was prepared and stored at room temperature (18 to 25° C.).
Animals in the vehicle treatment group were given both Vehicle 1 and Vehicle 2.
The dose volume for vehicle or compound was 5 mL/kg body weight.
Tumor size and body weight were measured twice weekly beginning on the day of animal grouping (e.g., Day 0). Animals were terminated when their tumor reached approximately 2000 mm3 and the study was terminated on Day 38 post treatment initiation.
Inhibition of tumor growth was determined by calculating the percent TGI (MTV of the vehicle group−MTV of a treated group)/MTV of the vehicle group] on Day 21 post treatment initiation. Statistical comparisons of tumor growth between treatment groups and vehicle were conducted using a linear mixed effects regression analysis on the ΔAUC.
Statistical analysis was carried out as described in Example 2.

[3] = alisertib 20 mg/kg/inj PO Q1D x 21 from Day 12 (+Vehicle 1)
[4] = alisertib 10 mg/kg PO QD Days 1-21 (+Vehicle 1)
[5] = alisertib 20 mg/kg PO QD Days 1-21 (+Vehicle 1)
[6] = Compound A 12.5 mg/kg/inj PO Q1D x 21 from Day 12 (+Vehicle 2)
[7] = Compound A 50 mg/kg/inj PO Q3D x 2/3 wks (BIW) from Day 12 (+Vehicle 2)
[8] = Compound A 12.5 mg/kg PO QD Days 1-21 (+Vehicle 2)
[9] = Compound A 50 mg/kg PO BIW Days 1, 4, 8, 11, 15, 18 (+Vehicle 2)

For COc1cc(Nc2ncc3c(n2)-c2ccc(Cl)cc2C(c2c(F)cccc2OC)=NC3)ccc1C(=O)O [alisertib, 4-{[9-chloro-7-(2-fluoro-6-methoxyphenyl)-5H-pyrimido[5,4-d][2]benzazepin-2-yl]amino}-2-methoxybenzoic acid, reference compound], the “Mean Tumor Volume on Day 32” value [1, 3] was 872 mm^3, the “TGI on Day 32” value [1, 3] was 60.3% and the “Non-Specific Deaths” value [1, 3] was 0. The “Regression (100%)” value [1, 3] was 0, the “Tumor Free on Day 74” value [1, 3] was 0 and the “Delta AUC” value [1, 3] was 30.9. For the same compound, the “Mean Maximum % BWL” value [2, 4] was 0%, the TGI [2, 4] was 21.7% and the “Mean Maximum % BWL” value [2, 5] was 0%. It also gave a TGI [2, 5] of 40.7%.

In the case of C[C@@H](NC(=O)c1ncnc(N)c1Cl)c1ncc(C(=O)Nc2cc(C(F)(F)F)c(Cl)cn2)s1 [Compound A, (R)-2-(1-(6-amino-5-chloropyrimidine-4-carboxamide)ethyl)-N-(5-chloro-4-(trifluoromethyl)pyridin-2-yl)thiazole-5-carboxamide], the “Mean Tumor Volume on Day 32” value [1, 6] is reported as 645 mm^3, the “TGI on Day 32” value [1, 6] is reported as 70.7% and the “Non-Specific Deaths” value [1, 6] is reported as 0. For the same compound, the “Regression (100%)” value [1, 6] was 0, the “Tumor Free on Day 74” value [1, 6] was 0 and the “Delta AUC” value [1, 6] was 37.3. For the same compound, the “Mean Tumor Volume on Day 32” value [1, 7] was 816 mm^3, the “TGI on Day 32” value [1, 7] was 62.9% and the “Non-Specific Deaths” value [1, 7] was 0. The “Regression (100%)” value [1, 7] was 0, the “Tumor Free on Day 74” value [1, 7] was 0 and the “Delta AUC” value [1, 7] was 35.6. For the same compound, the “Mean Maximum % BWL” value [2, 8] was 0%, the TGI [2, 8] was 76.4% and the “Mean Maximum % BWL” value [2, 9] was 0%. For the same compound, the TGI [2, 9] was 45.3%.
